Patent US9879020B2, “GABAA agonists and methods of using to control airway hyperresponsiveness and inflammation in asthma” (priority 2012, dated 2018)
Where “and” joins values, the source holds several entries; their conditions need not be identical. Equal values may be shown once. Entries after “also recorded” stand apart in the source; their conditions may differ. Read-outs that look alike come from different tables or passages of the source.

Columns and labels:
[1] = test system: GABAAR containing single α-subunits; assay: Patch clamp assay of chloride-flux inward currents at GABAAR containing single α-subunits (FIG. 12); format: cell-based; conditions: dose-response curves, α4 or α6 GABAAR compared to other α-subtypes
Text: Selectivity is quantified by dose-response curves showing greater inward currents (i.e., agonist activity) by action of GABAAR bearing a4 or a6 compared to other α-subtypes.
Two compounds having selective activity bias for α4-GABAAR were identified (FIG. 12). Patch clamp assays were used to quantify chloride flux induced inward currents resulting from agonism of GABAAR containing single α-subunits.

[2] = test system: GP tracheal rings; assay: Direct relaxation of guinea pig tracheal rings contracted with TEA or substance P; conditions: CM-D-45 200 um, 15 minutes
Protocol: Male Hartley guinea pigs (approximately 400 g) were anesthetized with intraperitoneal pentobarbital (100 mg/kg). Trachea were removed and dissected under a dissecting microscope into closed rings comprised of two cartilaginous segments. Epithelium was removed by gentle abrasion on the tracheal lumen with cotton. Tissues were placed into cold Krebs-Henseleit (KH) buffer (in mM: NaCl 118, KCl 5.6, CaCl2 0.5, MgSO4 0.24, NaH2PO4 1.3, NaHCO3 25, glucose 5.6, pH 7.4) containing indomethacin 10 uM (DMSO final concentration in organ baths of 0.01%) to block tone due to endogenous release of prostanoids. […]
To determine the direct relaxant effect of α4 subunit containing GABAA receptor activation using different contractile agonists, GP tracheal rings prepared according to Reference Example 3 were contracted with a single dose (10 mM) of TEA or (1 uM) substance P. Following a plateau in the generated muscle force, a single dose of CM-D-45 (200 um) or vehicle control (DMSO 0.1%) was added to the organ bath buffer and the percentage of relaxation achieved was assessed over 15 minutes in comparison to intra-experimental matched vehicle controls.

[3] = test system: murine tracheal rings; assay: Relaxation of acetylcholine-induced contraction in murine tracheal rings (wild type and GABAA α4 knockout), Example 13; conditions: CMD-45 100 uM, 30 minutes, ACh ~EC50; wild type vs GABAA α4 knockout mice; p<0.01 vs vehicle
Text: Adult male C57/B16 wild type mice or adult male mice globally deficient in the GABAA a4 subunit (from Dr. Gregg Homanics, University of Pittsburgh) were euthanized with an overdose of sodium pentobarbital. Tracheas were rapidly removed and placed in modified Krebs-Henseleit buffer of the following composition in mM: 115 NaCl, 2.5 KCl, 1.91 CaCl2, 2.46 MgSO4, 1.38 NaH2PO4, 25 NaHCO3, 5.56 D-glucose: pH 7.4 Connective tissue was removed under a dissecting microscope and tracheas were cut in half axially. One-half trachea was used in each chamber of a myograph bath (DMT: Ann Arbor, Mich.), one-half used for vehicle treatment and the other half used for drug (i.e. CMD-45) treatment. […] Tension was continuously digitally recorded using BioPac hardware connected to Acknowledge software. […] An ACh ˜EC50 was determined for each tracheal ring based on these dose response curves.
In relaxation studies, tracheal ring were contracted to the determined ˜EC50 and force was allowed to plateau. Single concentrations of vehicle (0.1% DMSO) or CMD-45 (100 uM) were added and continuous muscle force was measured over 30 minutes. The data are expressed as the percent of remaining tone at 30 minutes relative to the initial force achieved with the EC50 concentration of acetylcholine. […]

[4] = test system: human Jurkat E6-1 cells; assay: Automated patch clamp (IonFlux) for potentiation of GABA, membrane polarization in Jurkat E6-1 cells; format: cell-based; conditions: tested with 0.1 μM GABA; preliminary assay development studies
Protocol: Inserts show inward rectifying currents ([…]) at various doses. Compounds tested with 0.1 μM GABA. Curves show average of four determinations at indicated doses and standard deviations.
Both compounds were investigated using a CD4+ T-lymphocyte cell line (Jurkat E6-1) for potentiation of GABA using automated patch clamp (IonFlux). In contrast to manual patch clamp assays; this high throughput system enables dose dependent efficacy testing of more than 20 test conditions per day.

[5] = test system: Guinea pig tracheal rings; assay: Airway smooth muscle force in guinea pig ex vivo tracheal rings, Example 20; conditions: added after acetylcholine EC50 contraction
Protocol: Male (400 g) Dunkin Hartley guinea pigs were anesthetized with 100 mg/kg pentobarbital. Trachea were removed and divided into 8 closed circular rings each comprised of 2 cartilagenous segments. Adventitia and epithelium were dissected off under a microscope. Closed rings were suspended in 2 ml Radnoti organ baths connected to a Grass FT03 force transducer under 1 g resting tension at 37° C. with bubbled oxygenation 95% O2/5% CO2 and allowed to equilibrate for 1 h at resting tension with buffer exchanges every 15 min. Continuous digital recording of airway smooth muscle contractile force was done with Biopac hardware connected to Acknowledge v 7.3.3 software. Preliminary contractile challenges with performed with acetylcholine dose responses (0.1 nM-100 uM) 3 times with buffer exchanges and resetting of resting tension between each dose response. The Guinea pig tracheal rings were contracted with acetylcholine (an EC50 concentration for each ring). Following stabilization of the contractile force, the GABAA α5 selective negative modulator or the GABAA non-selective antagonist gabazine was added to the buffer.

[6] = test system: Guinea pig (GP) tracheal rings; assay: Isoproterenol-mediated relaxation of acetylcholine-contracted guinea pig tracheal rings with α4 GABAA selective agonist; conditions: for potentiation of isoproterenol-mediated relaxation: single dose 500 uM THIP or 200 uM taurine, acetylcholine pre-contracted; for EC50: Cavia porcellus, read-out: EC50 of isoproterenol relaxation concentration-response curve
[7] = test system: GABAA receptors; assay: Whole cell voltage clamp electrophysiology (Fluxion microfluidic plate) of human airway smooth muscle cells; format: cell-based
Protocol: (§1) Human immortalized bronchial smooth muscle cell lines prepared as described were grown to confluence in M199 media (Gibco) containing 10% fetal bovine serum, 0.25 ng/ml epidermal growth factor, 1 ng/ml fibroblast growth factor, ITS supplement (1 mg/ml insulin, 0.55 mg/ml transferrin, 0.67 ug/ml sodium selenium) and antibiotics (100 units/ml penicillin G sodium, 100 μg/ml streptomycin sulfate, 0.25 μg/ml amphotericin B) in a humidified atmosphere of 5% CO2/95% air at 37° C. Twenty four hours prior to study, cells were fed with serum and growth factor free media.
On the day of the assay, human airway smooth muscle cells (prepared as described in Reference Examples 1 and 2) were released from collagen-coated plates with collagenase type IV (Sigma C5138; 500 units/ml). The cells were resuspended in external buffer solution (In mM: NaCl 147, MgCl2 2, CaCl2 2, HEPES 10, dextrose 10; pH 7.2, osmolarity 320 mOsm) and rocked at room temperature to allow cells to obtain a spherical shape. Approximately 1 million cells were centrifuged (300×g, 3 min), washed ×2 in external buffer, and loaded (final volume of 400 uL) into a Fluxion microfluidic plate with each experimental group representing an ordered arrangement of 20 cells in parallel whole cell configuration. Following generation of adequate cellular membrane seals (40-120 MΩ), whole cell recordings were obtained under voltage clamp conditions (−80 mV) to a dose response to THIP (0.3 uM-300 uM). In separate assays cells were also co-treated simultaneously with 20 uM gabazine (GABAA receptor antagonist) and 25 uM THIP. In addition, to confirm that THIP-induced currents were due to chloride efflux, in separate experiments the intracellualar buffer (in mM: MgCl2 4, EGTA 10, HEPES 10, CsCl 130, Mg-ATP 4, CsOH 10, pH 7.2, 290 mOsM) was modified by replacing […] CsCl with 140 Cs gluconate to inhibit the magnitude of the […] current at −80 mV.

[8] = test system: GABAA receptors; assay: FLIPR membrane potential fluorescent dye assay in cultured human airway smooth muscle cells; format: cell-based; conditions: for antagonism of THIP-induced fluorescent / membrane potential changes: picrotoxin 200 uM, THIP 500 uM and 1 mM
Protocol: as §1
To determine whether activation of GABAA receptors induces membrane potential changes in cultured human airway smooth muscle cells the FLIPR in vitro fluorescent dye assay (Molecular Devices) was used. Human airway smooth muscle cells (prepared as described in Reference Examples 1 and 2) were grown to 100% confluence in 96 well black-walled plates and were washed with warmed (37° C.) low chloride buffer (consisting of in mM: 160 sodium-D-gluconate, 4.5 potassium-D-gluconate, 2 CaCl2, 1 MgCl2, 10 D-glucose, and 10 Hepes pH 7.4) four times. A stock solution (100% dye) of FLIPR blue dye was prepared by reconstitution of 1 vial (125 mg) with 100 ml of the low chloride buffer (assay buffer). A 50% working stock was prepared by further diluting the reconstituted blue dye 1:1 with assay buffer and was used to load cells (90 ul/well) over 20 minutes at 37° C. All reagents were dissolved in assay buffer. Baseline fluorescence was measured for 3 min prior to the first control additions (assay buffer). Three minutes later, airway smooth muscle cells were exposed to varying concentrations of THIP (0-10 mM) to determine a dose response. The fluorescence produced by membrane potential change following solution additions was quantified after subtracting changes induced by assay buffer alone. For subsequent antagonist assays, the first solution injected was either assay buffer, vehicle control (0.05% DMSO final), or the GABAA receptor antagonist picrotoxin (200 uM final) followed THIP (either 0.5 or 1 mM).

## COc1ccc2c(c1)C(=O)N1CCC[C@H]1c1c(C(=O)OC(C)C)ncn1-2
other
  melting point: 215 to 217 °C

## CNC(=O)c1ncn2c1[C@@H]1CCCN1C(=O)c1cc(OC)ccc1-2 [CM-D-45, N-methyl (S)-11,12,13,13a-tetrahydro-7-methoxy-9-oxo-9H-imidazo-[1,5-a]pyrrolo-[2,1-c][1,4]-benzodiazepine-1-carboxamide]
[1]
  functional selectivity among GABAAR α-subtypes (inward currents, agonist activity): selectivity bias in favor or α4 and α6-GABAAR
[2]; 1 uM substance P contraction
  muscle force, % of initial force remaining after substance P contraction: 61.3% and 61.3±16.9%
[2]; 10 mM TEA contraction
  muscle force, % of initial TEA-induced force remaining: 54.3% and 54.3±14.3%
[3]
  relaxation of an acetylcholine induced contraction (percent of remaining tone): relaxation of an acetylcholine (Ach) induced contraction in murine tracheal rings from wild-type but not GABAA α4 knockout mice
[4]
  membrane polarization, inward rectifying currents: hyperpolarizing membrane dose-response signals can be generated

## COCc1ncn2c1CN(C)C(=O)c1cc(Cl)ccc1-2 [PWZ-029]
[5]
  change in airway smooth muscle force: increase in force

## Oc1noc2c1CCNC2 [THIP]
[6]; THIP (500 uM) plus isoproterenol, n=8
  muscle force, % of initial acetylcholine-induced force: 22.9 ±13.2%
[6]
  potentiation of isoproterenol-mediated relaxation: significantly potentiated the relaxant effects of isoproterenol
[7]; 10 uM THIP, 11/12 arrays of 20 cells in whole cell configuration
  mean evoked current: −670.4+27.6 pA
[7]; THIP 0 to 300 uM, voltage clamped at −80 mV, read-out: EC50, current elicited in whole cell configuration
  EC50: ~15000 nM and 15000 nM
[8]; THIP 0 to 10 mM, low chloride buffer, n=12, read-out: EC50, change in relative fluorescence (membrane potential)
  EC50: 245000 nM

## COc1ccc(-c2ccc(=N)n(CCCC(=O)O)n2)cc1 [gabazine]
[6]; gabazine pretreatment 15 min prior to acetylcholine
  reversal of agonist potentiation of isoproterenol-mediated relaxation: significantly reversed the THIP potentiation of isoproterenol-mediated relaxation; also recorded: significantly reversed the potentiation of isoproterenol-mediated relaxation provided by taurine
[6]; gabazine pretreatment, then THIP plus isoproterenol, n=8
  muscle force, % of initial acetylcholine-induced force: 53.1±11.4%
[7]; gabazine with THIP 25 uM, −80 mV
  attenuation of THIP induced whole cell currents: attenuation of the THIP-induced current; also recorded: attenuation of THIP induced whole cell currents

## CC(C)NCC(O)c1ccc(O)c(O)c1 (stereo not shown) [isoproterenol]
[6]; isoproterenol after a single concentration of 200 uM taurine, n=7
  EC50: 2.4 nM
[6]; isoproterenol after a single concentration of 500 uM THIP, n=8
  EC50: 7.6 ± 0.5 nM
[6]; isoproterenol only (THIP experiment), n=8
  EC50: 32.8 nM
[6]; isoproterenol only (taurine experiment), n=6
  EC50: 15.8 nM
[6]; isoproterenol with 200 uM taurine subsequent to 200 μM gabazine pretreatment, n=7
  EC50: 4.7 nM
[6]; isoproterenol with 500 uM THIP subsequent to 500 μM gabazine pretreatment, n=8
  EC50: 11.8 ± 0.6 nM
[6]; isoproterenol alone at low concentration, n=8
  muscle force, % of initial acetylcholine-induced force: 76.5±8.5%

## NCCS(=O)(=O)O [taurine]
[6]
  potentiation of isoproterenol-mediated relaxation: potentiated isoproterenol-mediated relaxation

## picrotoxin
[8]
  antagonism of THIP-induced fluorescent / membrane potential changes: attenuation of THIP-induced fluorescent changes
[8]; listed as Picrotoxin
  antagonism of THIP-induced fluorescent / membrane potential changes: antagonism of THIP mediated membrane potential changes persisted even under conditions of high dose THIP
